# From patent US20260062394A1, “PROCESSES FOR PREPARING OXAZOLIDINONE COMPOUNDS” (Merck Sharp & Dohme LLC, priority 2022, published 2026)
# Assay: relative stability and turnover of the crystalline forms
# Type: physicochemical
# Conditions: for thermodynamic stability of the crystalline form: solid form, Form II statement applies to the 5-70° C. range
# Source text: Alternatively, Form I can also be produced by solvent/anti solvent crystallizations where the solvent is (but limited not) DMSO or acetone and the antisolvent is (but not limited to) water, hexanes or heptanes. Form I can also be produced by slow evaporation of clear solutions of crude Example 1 in volatile solvents where the volatile solvent is (but not limited to) dichloromethane, acetone, or acetonitrile. Form I was characterized using PXRD, DSC, TGA and SCXRD.
# Form II can be produced by recrystallization of Form I in a variety of organic solvents or mixtures thereof where the solvent(s) is (are) (but not limited to) ethyl acetate, isopropanol, acetone, dichloromethane, acetonitrile, tetrahydrofuran, water, ethanol, 2-methyl tetrahydrofuran, toluene, methanol, dimethyl formamide or cyclopentyl methyl ether. Form II was characterized using PXRD, DSC and TGA.
# Type C can be produced by recrystallization of either Form I, Form II or Form III in solvent/antisolvent systems where the solvent is (but not limited to) acetone or dichloromethane and the antisolvent is (but not limited to) n-hexane or n-heptane.
# Form III was produced by recrystallization of Type C in the solid state at 150° C. and under a N2 flow. Form III can also be formed in some instances from solution in acetone/n-heptane crystallizations. […] Form III was characterized using PXRD, DSC, TGA and SCXRD.
lifetime in solution before turnover into a more thermodynamically stable phase (in solution),SMILES,thermodynamic stability of the crystalline form
–,"COC(=O)NC[C@H]1CN(c2cc(F)c(N3CCS(=O)(=O)CC3)c(F)c2)C(=O)O1 [Form I, methyl({(5S)-3-[4-(1,1-dioxo-1λ^6-thiomorpholin-4-yl)-3,5-difluorophenyl]-2-oxo-1,3-oxazolidin-5-yl}methyl)carbamate]",kinetic phase and will recrystallize into Form II with time
–,"COC(=O)NC[C@H]1CN(c2cc(F)c(N3CCS(=O)(=O)CC3)c(F)c2)C(=O)O1 [Form II, methyl ({(5S)-3-[4-(1,1-dioxo-1λ^6-thiomorpholin-4-yl)-3,5-difluorophenyl]-2-oxo-1,3-oxazolidin-5-yl}methyl)carbamate]",most thermodynamically stable form in the 5-70 °C range
–,"COC(=O)NC[C@H]1CN(c2cc(F)c(N3CCS(=O)(=O)CC3)c(F)c2)C(=O)O1 [Form III, methyl ({(5S)-3-[4-(1,1-dioxo-1λ^6-thiomorpholin-4-yl)-3,5-difluorophenyl]-2-oxo-1,3-oxazolidin-5-yl}methyl)carbamate]",Quick turnovers to more thermodynamically stable phases Form I or Form II are readily observed within minutes to hours
a few hours,"COC(=O)NC[C@H]1CN(c2cc(F)c(N3CCS(=O)(=O)CC3)c(F)c2)C(=O)O1 [Type C, methyl ({(5S)-3-[4-(1,1-dioxo-1λ^6-thiomorpholin-4-yl)-3,5-difluorophenyl]-2-oxo-1,3-oxazolidin-5-yl}methyl)carbamate]",highly metastable
